Data taken from the supplement of paper PMC5908809.

What was measured:
IMC-1 (IL-2 20 ng/mL) [1] = assay: percent inhibition of viability; higher = more inhibition; details: 72 h
[2] = tested on: normal primary NK cells, pool 1 (3 donors), resting (IL-2 0 ng/mL); assay: as above; details: 72 h
NKL (IL-2 2.5 ng/mL) [3] = assay: as above; details: 72 h
KAI3 (IL-2 2.5 ng/mL) [4] = assay: as above; details: 72 h
[5] = tested on: normal primary NK cells, pool 3 (3 donors) (IL-2 2.5 ng/mL); assay: as above; details: 72 h
[6] = tested on: normal primary NK cells, pool 2 (3 donors) (IL-2 2.5 ng/mL); assay: as above; details: 72 h
[7] = tested on: normal primary NK cells, pool 1 (3 donors) (IL-2 2.5 ng/mL); assay: as above; details: 72 h
YT (IL-2 2.5 ng/mL) [8] = assay: as above; details: 72 h
DERL-7 (IL-2 2.5 ng/mL) [9] = assay: as above; details: 72 h
KHYG-1 (IL-2 2.5 ng/mL) [10] = assay: as above; details: 72 h
SNK-6 (IL-2 2.5 ng/mL) [11] = assay: as above; details: 72 h
NK-YS (IL-2 2.5 ng/mL) [12] = assay: as above; details: 72 h
NK-92 (IL-2 2.5 ng/mL) [13] = assay: as above; details: 72 h
[14] = tested on: normal NK cells expanded with K562-aAPC; assay: drug sensitivity score (DSS) (DSS units); higher = more sensitive; extreme values may be limits of the assay; details: 72 h; IL-2 2.5 ng/mL
Experimental: (§1)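 Drug sensitivity and resistance testing on K562-aAPC-expanded normal NK cells: 5 concentrations (10-fold steps over a 10,000-fold range), 72 h at 37 °C, viability by CellTiter-Glo normalised to DMSO and benzethonium chloride controls; DSS from the fitted curve.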

[15] = tested on: normal NK cells expanded with K562-aAPC; assay: percent inhibition of viability; higher = more inhibition; details: 72 h, IL-2 2.5 ng/mL
Experimental: as §1

IMC-1 (IL-2 20 ng/mL) [16] = assay: drug sensitivity score (DSS) (DSS units); higher = more sensitive; extreme values may be limits of the assay; details: 72 h
[17] = tested on: normal primary NK cells, pool 1 (3 donors), resting (IL-2 0 ng/mL); assay: as above; details: 72 h
NKL (IL-2 2.5 ng/mL) [18] = assay: as above; details: 72 h
KAI3 (IL-2 2.5 ng/mL) [19] = assay: as above; details: 72 h
[20] = tested on: normal primary NK cells, pool 3 (3 donors) (IL-2 2.5 ng/mL); assay: as above; details: 72 h
[21] = tested on: normal primary NK cells, pool 2 (3 donors) (IL-2 2.5 ng/mL); assay: as above; details: 72 h
[22] = tested on: normal primary NK cells, pool 1 (3 donors) (IL-2 2.5 ng/mL); assay: as above; details: 72 h
YT (IL-2 2.5 ng/mL) [23] = assay: as above; details: 72 h
DERL-7 (IL-2 2.5 ng/mL) [24] = assay: as above; details: 72 h
KHYG-1 (IL-2 2.5 ng/mL) [25] = assay: as above; details: 72 h
SNK-6 (IL-2 2.5 ng/mL) [26] = assay: as above; details: 72 h
NK-YS (IL-2 2.5 ng/mL) [27] = assay: as above; details: 72 h
NK-92 (IL-2 2.5 ng/mL) [28] = assay: as above; details: 72 h

O=C(Nc1cc(Cl)cc2c1[nH]c1cnccc12)c1cccnc1 [PS-1145] (max concentration tested 25000 nM)
percent inhibition of viability [%]
Details	2.5 nM	25 nM	250 nM	2500 nM	25000 nM
DERL-7 (IL-2 2.5 ng/mL) [9]	-3.2	-13	1.95	-4.1	-8.03
IMC-1 (IL-2 20 ng/mL) [1]	-6.22	-1.55	3.4	7.36	16
KAI3 (IL-2 2.5 ng/mL) [4]	5.94	6.21	4.4	48.5	75
KHYG-1 (IL-2 2.5 ng/mL) [10]	5.69	5.58	12.9	7.66	16.4
NK-92 (IL-2 2.5 ng/mL) [13]	-0.17	-20.2	-5.95	4.6	23.6
NK-YS (IL-2 2.5 ng/mL) [12]	0.26	0.9	2.11	7.41	11.3
NKL (IL-2 2.5 ng/mL) [3]	12.7	11.1	10.4	9.5	20.8
SNK-6 (IL-2 2.5 ng/mL) [11]	-11.2	3.19	-6.13	14.1	16.6
YT (IL-2 2.5 ng/mL) [8]	3.94	1.19	1.07	4.91	13.9
[2]	-26.1	-30.6	0.68	-5.12	-6.42
[5]	-2.28	-6.49	7.93	14.6	10.4
[6]	-19.7	-10.7	3.18	6.82	10.1
[7]	5.83	-8.31	15.4	7.93	11.5
[15]	2.02	0.77	-1.48	-6.16	6.75

Details	drug sensitivity score
DERL-7 (IL-2 2.5 ng/mL) [24]	0
IMC-1 (IL-2 20 ng/mL) [16]	0.51
KAI3 (IL-2 2.5 ng/mL) [19]	10.1
KHYG-1 (IL-2 2.5 ng/mL) [25]	0.87
NK-92 (IL-2 2.5 ng/mL) [28]	1.52
NK-YS (IL-2 2.5 ng/mL) [27]	0.04
NKL (IL-2 2.5 ng/mL) [18]	0
SNK-6 (IL-2 2.5 ng/mL) [26]	1.45
YT (IL-2 2.5 ng/mL) [23]	0.38
[14]	0
[17]	0
[20]	1.86
[21]	0
[22]	0.64
